Earlier results on 8 molecules are cited in patent publication US20230363996A1, “HAIR CARE COMPOSITION” (Conopco, Inc., d/b/a UNILEVER, priority 2020, published 2023).

The conditions of the data set: organic/aqueous partition.
As for `COc1cc(O)c(C(=O)c2ccccc2)cc1S(=O)(=O)O` [Benzophenone-4, reference compound], the “log P” value was “Benzophenone-4 (logP = 0.99)”.

Take `O=C(c1ccccc1)c1ccc(O)cc1O` [benzophenone-1]: the “log P” value is on record as 3.15. For `O=C(c1ccc(O)cc1O)c1ccc(O)cc1O` [benzophenone-2], the “log P” value was 3.09. Regarding `COc1ccc(C(=O)c2ccccc2)c(O)c1` [benzophenone-3], the “log P” value is reported as 3.99. `COc1ccc(C(=O)c2ccc(OC)cc2O)c(O)c1` [benzophenone-6]: the “log P” value is on record as 4.78.

In the case of `O=C(c1ccccc1)c1cc(Cl)ccc1O` [benzophenone-7], the “log P” value was 4.51. For `COc1ccc(C(=O)c2ccccc2O)c(O)c1` [benzophenone-8], the “log P” value was 4.31. Regarding `COc1ccc(C(=O)c2ccc(C)cc2)c(O)c1` [benzophenone-10], the “log P” value is 4.66.
